Results: patent US6761896B1, “Skin cosmetic care system and method” (Unilever Home & Personal Care USA, division of Conopco, Inc., priority 1998, dated 2004)

System: normal human keratinocytes
Assay: Keratinocyte proliferation measured by DNA content (monolayer cultures)
Assay type: cell-based
Protocol: The cells used in these studies are normal human keratinocytes and pig skin organ cultures. The normal human keratinocytes isolated from neonatal foreskins by trypsin treatment were growth in DME medium/5% fetal calf serum in the presence of mitomycin C treated 3T3 mouse fibroblasts of establishing dividing colonies. Keratinocytes were grown under these conditions until their third passage. For the experiments, third passage keratinocytes were plated into a serum-free keratincoyte growth medium (KGM; obtained form Clonetics, San Diego, Calif.) containing 0.15 mM calcium. Neonatal human fibroblasts were obtained from Clonetics and grown in Dulbecco's Minimum essential medium (DMEM) containing 10% fetal calf serum. Experiments were conducted in cells between passage numbers 4-10. Keratinocytes were plated in the middle 60 wells of 96 well plates (3000 cells/well). 24 hrs later, the plates were placed on top, in the middle of the magnet (bar or Bioflex) and grown for a further 4 days until the cells become 70-80% confluent. Medium was changed every 2 or 3 days. Control plates were placed on top of a nonmagnetic metal plate and the test plates were placed on top of the bar magnet (North or South side up) or in the middle of the Bioflex magnet. In some studies where the growth of cells were measured as a function of magnetic force, plates were placed on top of one another on top of the magnet such that the bottom plate is closest to the magnet (highest force) and the top plate is the furthest away from the magnet (lowest magnetic force). Studies to assess the effects of North and South magnets were carried out in different incubators to avoid the influence of one magnet on the other. After 4 days of growth, the plates were removed from the incubator, washed 2 times with phosphate buffered saline (PBS), and incubated with 100 ul of a bisbenzimide H 33258 solution (obtained from Calbiochem—stock solution was prepared at 1 mg/ml distilled water,'stored in dark at 4° C. for no longer than 1 week). After 15 min of incubation in the dark at room temperature, fluorescence was measured on a Millipore Cytofluor 2000b (ex/em=360/460 nm). The DNA content was calculated using a standard of calf thymus DNA and expressed as ug/well or as % of control wells which were not exposed to magnets. In all the studies using monolayer cultures mean+/−standard deviation of at least 24 different wells were used to calculate statistical significance using Students t-test. Example 3 evaluated the synergy between lactic acid and magnetic field in inducing the proliferation of keratinocytes. In this study, using in vitro keratinocyte cultures, 2 mM lactic acid increased proliferation by 5.4%. This increase was not statistically significant. […]

CC(O)C(=O)O (stereo not shown) [LA, lactic acid]
DNA content, Average (2 mM lactic acid + BIOflex magnet): 277
stimulation of keratinocyte proliferation (2 mM lactic acid in the presence of BIOflex magnet, statistically significant): 15%
DNA content, Average (2 mM lactic acid, no magnet): 254
increase in keratinocyte proliferation (2 mM lactic acid, no magnet, not statistically significant): 5.4%
